Publication PMC6928678, “Simplified Head-to-Tail Cyclic Polypeptides as Biomaterial-Associated Antimicrobials with Endotoxin Neutralizing and Anti-Inflammatory Capabilities” (International Journal of Molecular Sciences, 2019)
In brackets after ≈: the same amount, converted by molar mass. Read-outs that look alike come from different tables or passages of the source. Where a SMILES comes first, the peptide text is derived from it. Where no end group is shown, it is not given here. [ ]: non-standard residue; d: D form.

Experiments:
[1] = tested on: E. coli 25922; test: microbe, parasite or virus in culture; format: cell-based, Escherichia coli
Method: (§1) The test strains, including Gram-negative E. coli ATCC25922, E. coli ATCC 1005, S. typhimurium C7731, P. aeruginosa ATCC 27853, S. Typhimurium 14028, Gram-positive S. aureus ATCC29213, S. aureus ATCC 25923, S. epidermidis ATCC 12228 and S. aureus 43300, were obtained from the School of Veterinary Medicine, Northeast Agricultural University (Harbin, China).
(§2) Briefly, the bacteria were incubated overnight at 37 °C with constant shaking at 220 rpm, then were transferred to new MH broth (MHB) medium until they reached the logarithmic phase of growth. The bacteria were then diluted to 10^5 (CFU)/mL in MHB. The peptides were dissolved and diluted in 0.01% acetic acid and 0.2% bovine serum albumin (BSA) at various concentrations (0.5–128 μM) in each well of sterile 96-well plates and incubated for 20 h at 37 °C. […] The test was repeated three times.

[2] = tested on: E. coli UB 1005; test: microbe, parasite or virus in culture; format: cell-based, Escherichia coli
Method: as §1, §2

[3] = tested on: S. aureus 25923; test: microbe, parasite or virus in culture; format: cell-based, Staphylococcus aureus
Method: as §1, §2

[4] = tested on: S. aureus 29213; test: microbe, parasite or virus in culture; format: cell-based, Staphylococcus aureus
Method: as §1, §2

[5] = tested on: MRSA43300; test: microbe, parasite or virus in culture; format: cell-based, Methicillin-resistant Staphylococcus aureus
Method: as §1, §2

[6] = tested on: P. aeruginosa 27853; test: microbe, parasite or virus in culture; format: cell-based; settings: read-out: MIC
Method: as §1, §2

[7] = tested on: S. epidermidis 12228; test: microbe, parasite or virus in culture; format: cell-based
Method: as §1, §2

[8] = tested on: S. typhimurium 14028; test: microbe, parasite or virus in culture; format: cell-based
Method: as §1, §2

[9] = tested on: S. typhimurium 7731; test: microbe, parasite or virus in culture; format: cell-based
Method: as §1, §2

[10] = tested on: gram-negative strains tested; test: Geometric mean of MICs, gram-negative strains; format: cell-based; settings: 5 gram-negative strains; >128 apparently counted as 256; read-out: nGM (–), geometric mean of the MICs against gram-negative strains
Method: as §2

[11] = tested on: gram-positive strains tested; test: organism not typed; format: cell-based; settings: for pGM (+), geometric mean of the MICs against gram-positive strains: 20 h
Method: as §2

[12] = tested on: all the 9 bacteria tested; test: Geometric mean of MICs, all 9 bacteria; format: cell-based; settings: for tGM, geometric mean of the MICs against all the 9 bacteria: all 9 bacteria tested
Method: as §2

[13] = tested on: human red blood cells (hRBCs); test: Hemolysis assay; format: cell-based
Method: Figure 2 (A) Hemolytic activity of the engineered peptides against human red blood cells (hRBCs). The hRBCs were incubated with equal amounts of the respective peptides dissolved in PBS for 1 h at 37 °C. (B) Cytotoxicity of the engineered peptides against RAW264.7. […] Data shown are three independent experiments.
The hemolytic activity of the peptides is determined by measuring the amount of hemoglobin released during the lysis of human erythrocytes at different concentrations of AMPs. Briefly, fresh, healthy human red blood cells (hRBCs) were collected and then washed three times with phosphate-buffered saline (PBS) buffer (pH 7.2) and centrifuged at 1000× g for 5 min. Each 50 µL sample of hRBCs was incubated with 50 µL of the respective peptide dissolved in PBS in a well of a 96-well plate for 1 h at 37 °C. After incubation, the samples were centrifuged at 1000× g for 5 min and the supernatants (50 μL) were transferred to a new 96-well microplate. The release of hemoglobin was measured by monitoring the OD at 570 nm (Tecan, Salzburg, Austria). Negative (hRBCs without AMP treatment) and positive (hRBCs treated with 0.1% TritonX-100) controls were used. The concentration of peptide that caused 5% hemolysis was considered the minimal hemolysis concentration (MHC). The test was repeated three times. The percent hemolysis was calculated using the following formula:(2) Percent hemolysis=A−A0/At−A0× 100% A0 and At represent 0% and 100% hemolysis as measured in 10 mM PBS and 0.2% Triton X-100, respectively.

[14] = tested on: Gram-positive and Gram-negative bacteria; test: Antimicrobial assay (MIC), statement over all strains; format: cell-based; settings: all strains tested
Method: as §2

[15] = RP-HPLC used as measure of hydrophobicity; 4.6 mm × 250 mm Venusil MP C18-5 column, 220 nm, linear acetonitrile gradient 15% to 45% in 30 min, 0.1% trifluoroacetic acid, 1 mL/min
Source text: In this experiment, cyclic, linear and D-proline antimicrobial peptides were designed based on the IR-rich template sequence (IR)nP(IR)nP (n = 1, 2 and 3). […] The […] molecular weights of the peptides were identified using mass spectrometry. […] The hydrophobicity of the peptides in solution is dependably mirrored by the HPLC retention times.

[16] = tested on: bacteria versus human red blood cell; test: Selectivity index (MHC5/GM); settings: 256 μM used for MHC5 when no hemolysis at 128 μM
Method: To investigate the cell selectivity of novel antimicrobials, the total selectivity index (TSI) was calculated as the ratio of the minimal hemolysis concentration (MHC) to the geometric mean (GM) of the MIC values (Table 2).

Row | Molecule | MIC ([1]; 25922, 20 h) [µM] | MIC ([2]; UB 1005, 20 h) [µM] | MIC ([3]; 25923, 20 h) [µM] | MIC ([4]; 29213, 20 h) [µM] | MIC ([5]; 20 h) [µM] | MIC ([6]; 27853, 20 h) [µM] | MIC ([7]; 12228, 20 h) [µM] | MIC ([8]; 14028, 20 h) [µM] | MIC ([9]; 7731, 20 h) [µM] | MIC [10] [µM] | pGM (+), geometric mean of the MICs against gram-positive strains [11] [µM] | tGM, geometric mean of the MICs against all the 9 bacteria [12] [µM] | MHC5, minimum hemolytic concentration that induced ≥5% hemolysis ([13]; red cells of human, 1 h) [µM] | MIC in the presence of Gram-positive and Gram-negative bacteria [14] | RT (retention time) [15] [min] | also measured
1 | CC[C@H](C)[C@H](N)C(=O)N[C@@H](CCCNC(=N)N)C(=O)N1CCC[C@@H]1C(=O)N[C@H](C(=O)N[C@@H](CCCNC(=N)N)C(=O)N1CCC[C@@H]1C(=O)O)[C@@H](C)CC [DIR1] (H-IR[dP]IR[dP]-OH) | >128 | >128 | >128 | >128 | >128 | >128 | >128 | >128 | >128 | 256 (≈ 192 µg/mL) | 256 | 256 | >128 | greater than 128 μM | – | –
2 | CC[C@H](C)[C@@H]1NC(=O)[C@@H]2CCCN2C(=O)[C@H](CCCNC(=N)N)NC(=O)[C@H]([C@@H](C)CC)NC(=O)[C@@H]2CCCN2C(=O)[C@H](CCCNC(=N)N)NC1=O [OIR1] (cyclo(IRPIRP)) | >128 | >128 | >128 | >128 | >128 | >128 | >128 | >128 | >128 | 256 (≈ 188 µg/mL) | 256 | 256 | >128 | greater than 128 μM | 10.32 | –
3 | CC[C@H](C)[C@@H]1NC(=O)[C@H](CCCNC(=N)N)NC(=O)[C@H]([C@@H](C)CC)NC(=O)[C@@H]2CCCN2C(=O)[C@H](CCCNC(=N)N)NC(=O)[C@H]([C@@H](C)CC)NC(=O)[C@H](CCCNC(=N)N)NC(=O)[C@H]([C@@H](C)CC)NC(=O)[C@@H]2CCCN2C(=O)[C@H](CCCNC(=N)N)NC1=O [OIR2] (cyclo(IRIRPIRIRP)) | 64 (≈ 81.4 µg/mL) | 64 (≈ 81.4 µg/mL) | >128 | >128 | >128 | >128 | >128 | >128 | >128 | 147.0 (≈ 187 µg/mL) | 256 | 188.1 | >128 | – | 10.66 | –
4 | CC1(C)S[C@@H]2[C@H](NC(=O)Cc3ccccc3)C(=O)N2[C@H]1C(=O)O [PS, Penicillin Sodium, reference compound] | – | – | – | – | – | – | – | – | – | 24.3 | – | – | – | – | – | MIC ([1]; Escherichia coli, E. coli 25922, MHB, 10^5 CFU/mL, 0.5–128 μM peptide, 20 h 37 °C, OD 492 nm, repeated three times): 128 µM; MIC ([2]; Escherichia coli, UB1005, E. coli UB 1005, MHB, 10^5 CFU/mL, 20 h 37 °C, repeated three times): 64 µM; MIC ([3]; Staphylococcus aureus, S. aureus 25923, MHB, 10^5 CFU/mL, 20 h 37 °C, repeated three times): 32 µM; MIC ([4]; Staphylococcus aureus, S. aureus 29213, MHB, 10^5 CFU/mL, 20 h 37 °C, repeated three times): 64 µM; MIC ([5]; Staphylococcus aureus, MRSA43300, MHB, 10^5 CFU/mL, 20 h 37 °C, repeated three times): 32 µM; MIC ([6]; Pseudomonas aeruginosa, P. aeruginosa 27853, MHB, 10^5 CFU/mL, 20 h 37 °C, repeated three times): 128 µM; MIC ([7]; Staphylococcus epidermidis, S. epidermidis 12228, MHB, 10^5 CFU/mL, 20 h 37 °C, repeated three times): 0.5 µM; MIC ([8]; Salmonella enterica, S. typhimurium 14028, MHB, 10^5 CFU/mL, 20 h 37 °C, repeated three times): 16 µM; MIC ([9]; Salmonella enterica, S. typhimurium 7731, MHB, 10^5 CFU/mL, 20 h 37 °C, repeated three times): 0.5 µM; MIC ([11]; 4 gram-positive strains, >128 apparently counted as 256, read-out: pGM (+), geometric mean of the MICs against gram-positive strains): 13.5 µM; GM MIC (range of Gram-negative and Gram-positive geometric means) ([12]; Table 2): 13.5 to 24.3 µM; MIC ([12]; read-out: tGM, geometric mean of the MICs against all the 9 bacteria): 18.7 µM; MHC5, minimum hemolytic concentration that induced ≥5% hemolysis ([13]; human red blood cells, PBS, 1 h at 37 °C, OD 570 nm, repeated three times): >128 µM; nSI (–), selectivity index MHC5/GM (−) [16]: 10.5; pSI (+), selectivity index MHC5/GM(+) [16]: 19.0; tSI, total selectivity index MHC5/TGM [16]: 13.7
5 | IRPIRP [IR1] | >128 | >128 | >128 | >128 | >128 | >128 | >128 | >128 | >128 | 256 | 256 | 256 | >128 | greater than 128 μM | – | –
